target: T1, NS3 (Hepatitis C virus, UniProt A3EZJ3); experiment: Inhibitory activity against hepatitis C virus (HCV) NS3 protease in the presence of Zn2+.; design: species or system Hepacivirus hominis
T1 sequence (A3EZJ3 whole entry): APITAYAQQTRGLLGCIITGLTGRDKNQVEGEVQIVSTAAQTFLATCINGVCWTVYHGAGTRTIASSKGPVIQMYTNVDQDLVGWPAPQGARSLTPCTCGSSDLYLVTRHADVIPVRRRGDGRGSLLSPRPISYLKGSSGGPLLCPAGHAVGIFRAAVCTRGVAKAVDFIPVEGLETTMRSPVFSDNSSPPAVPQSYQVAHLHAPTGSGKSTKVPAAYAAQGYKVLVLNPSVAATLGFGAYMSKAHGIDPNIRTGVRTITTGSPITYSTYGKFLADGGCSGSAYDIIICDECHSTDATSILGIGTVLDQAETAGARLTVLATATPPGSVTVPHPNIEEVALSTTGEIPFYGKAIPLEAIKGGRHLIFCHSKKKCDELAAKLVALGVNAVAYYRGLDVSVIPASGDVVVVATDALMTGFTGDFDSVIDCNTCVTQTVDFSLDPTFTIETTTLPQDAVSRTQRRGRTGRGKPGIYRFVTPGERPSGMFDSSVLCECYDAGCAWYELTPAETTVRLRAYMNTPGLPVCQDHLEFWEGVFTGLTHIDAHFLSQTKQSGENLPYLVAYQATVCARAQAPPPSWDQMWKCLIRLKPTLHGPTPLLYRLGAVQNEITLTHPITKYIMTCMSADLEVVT

IC50 [µM]	Structure (SMILES)
7.7	Cn1c(Cc2nc3ccccc3[nH]2)nc2ccc(C(=O)NC(CCC(=O)N(CC(=O)O)CC(=O)O)C(=O)O)cc21 (configuration not stated)
0.2	Cn1c(Cc2nc3cc(C(N)=O)ccc3[nH]2)nc2ccc(C(=O)NC(CP(=O)(O)O)C(=O)O)cc21 (configuration not stated)
12	Cn1c(Cc2nc3ccccc3[nH]2)nc2ccc(C(=O)NCCc3ccc(OCC(=O)NS(=O)(=O)c4ccccc4)cc3)cc21
3.4	Cn1c(Cc2nc3ccccc3[nH]2)nc2ccc(C(=O)NC(CC(=O)NS(=O)(=O)c3ccccc3C(=O)O)C(=O)O)cc21 (configuration not stated)
2	Cn1c(Cc2nc3cc(C(N)=O)ccc3[nH]2)nc2ccc(C(=O)Nc3cc(C(=O)O)cc(C(=O)NC(CCC(=O)O)C(=O)O)c3)cc21 (configuration not stated)
7	Cn1c(Cc2nc3ccc(C(N)=O)cc3[nH]2)nc2ccc(C(=O)NC(Cc3ccc(O)c(C(=O)O)c3)C(=O)O)cc21 (configuration not stated)
0.51	Cn1c(Cc2nc3ccc(C(N)=O)cc3[nH]2)nc2ccc(C(=O)NC(CCCCCP(=O)(O)O)C(=O)O)cc21 (configuration not stated)
1	Cn1c(Cc2nc3cc(C(N)=O)ccc3[nH]2)nc2ccc(C(=O)Nc3cc(C(=O)O)cc(C(=O)NC(CC(=O)O)C(=O)O)c3)cc21 (configuration not stated)
0.87	Cn1c(Cc2nc3cc(C(N)=O)ccc3[nH]2)nc2ccc(C(=O)NC(CCP(=O)(O)O)C(=O)O)cc21 (configuration not stated)
37	COC(=O)c1ccccc1S(=O)(=O)NC(=O)C[C@H](NC(=O)c1ccc2nc(Cc3nc4ccc(C(N)=O)cc4[nH]3)n(C)c2c1)C(=O)OCc1ccccc1
4	Cn1c(Cc2nc3cc(C(N)=O)ccc3[nH]2)nc2ccc(C(=O)NC(Cc3ccc(OCC(=O)O)c(C(=O)O)c3)C(=O)O)cc21 (configuration not stated)
1.6	Cn1c(Cc2nc3cc(C(N)=O)ccc3[nH]2)nc2ccc(C(=O)NC(CC(=O)NS(=O)(=O)c3ccccc3C(=O)O)C(=O)O)cc21 (configuration not stated)
25	Cn1c(Cc2nc3cc(C(N)=O)ccc3[nH]2)nc2ccc(C(=O)NC(Cc3cccc(C(=O)O)c3)C(=O)O)cc21 (configuration not stated)
8.1	COC(=O)c1ccccc1S(=O)(=O)NC(=O)CC(NC(=O)c1ccc2nc(Cc3nc4ccc(C(N)=O)cc4[nH]3)n(C)c2c1)C(=O)O (configuration not stated)
2.6	Cn1c(Cc2nc3ccc(C(N)=O)cc3[nH]2)nc2ccc(C(=O)NC(CCC(=O)NS(=O)(=O)c3ccccc3C(=O)O)C(=O)O)cc21 (configuration not stated)
2.6	Cn1c(Cc2nc3cc(C(N)=O)ccc3[nH]2)nc2ccc(C(=O)NC(CC(C(=O)O)C(=O)O)C(=O)O)cc21 (configuration not stated)
16	Cn1c(Cc2nc3cc(C(N)=O)ccc3[nH]2)nc2ccc(C(=O)NCCc3ccc(OCC(=O)O)cc3)cc21
17	Cn1c(Cc2nc3ccc(C(N)=O)cc3[nH]2)nc2ccc(C(=O)Nc3ccc(C(=O)NC(CCC(=O)O)C(=O)O)cc3)cc21 (configuration not stated)
0.82	Cn1c(Cc2nc3cc(C(N)=O)ccc3[nH]2)nc2ccc(C(=O)NC(CCCP(=O)(O)O)C(=O)O)cc21 (configuration not stated)
6.4	Cn1c(Cc2nc3ccc(C(N)=O)cc3[nH]2)nc2ccc(C(=O)Nc3cccc(C(=O)NC(CCC(=O)O)C(=O)O)c3)cc21 (configuration not stated)
43	Cn1c(Cc2nc3ccc(C(N)=O)cc3[nH]2)nc2ccc(C(=O)Nc3cccc(C(=O)NCCCC(=O)O)c3)cc21
12	Cn1c(Cc2nc3ccc(C(N)=O)cc3[nH]2)nc2ccc(C(=O)NC(Cc3cc(OCC(=O)O)ccc3C(=O)O)C(=O)O)cc21 (configuration not stated)
11	COC(=O)c1ccccc1S(=O)(=O)NC(=O)CC(NC(=O)c1ccc2nc(Cc3nc4ccccc4[nH]3)n(C)c2c1)C(=O)O (configuration not stated)
29	COC(=O)c1ccccc1S(=O)(=O)NC(=O)CC[C@H](NC(=O)c1ccc2nc(Cc3nc4cc(C(N)=O)ccc4[nH]3)n(C)c2c1)C(=O)OCc1ccccc1
9	Cn1c(Cc2nc3ccc(C(N)=O)cc3[nH]2)nc2ccc(C(=O)NC(Cc3ccc(C(=O)O)c(OCC(=O)O)c3)C(=O)O)cc21 (configuration not stated)
1	Cn1c(Cc2nc3ccc(C(N)=O)cc3[nH]2)nc2ccc(C(=O)NC(Cc3ccc(OCC(=O)O)cc3)C(=O)O)cc21 (configuration not stated)

target: T1, NS3; experiment: Inhibitory activity against hepatitis C virus (HCV) NS3 protease in the absence of Zn2+; design: species or system Hepacivirus hominis

IC50 [µM]	Structure (SMILES)
167	Cn1c(Cc2nc3cc(C(N)=O)ccc3[nH]2)nc2ccc(C(=O)NC(CP(=O)(O)O)C(=O)O)cc21 (configuration not stated)
